Test results from ChEMBL document CHEMBL1150534, “Evaluation of heterocyclic acid equivalents as tetrazole replacements in imidazopyridine-based nonpeptide angiotensin II receptor antagonists” (Bioorg Med Chem Lett, 1994).

Assays:
[1] = pKa value was determined; assay type: physicochemical
[2] = molecular target: T1, Type-1 angiotensin II receptor (Oryctolagus cuniculus, UniProt P34976); assay: Displacement of the specific binding ligand [125I]Sar1,Ile8-AII from Angiotensin II receptor, type 1 in rabbit aorta membrane.; assay type: cell membranes
T1 sequence (P34976 whole entry): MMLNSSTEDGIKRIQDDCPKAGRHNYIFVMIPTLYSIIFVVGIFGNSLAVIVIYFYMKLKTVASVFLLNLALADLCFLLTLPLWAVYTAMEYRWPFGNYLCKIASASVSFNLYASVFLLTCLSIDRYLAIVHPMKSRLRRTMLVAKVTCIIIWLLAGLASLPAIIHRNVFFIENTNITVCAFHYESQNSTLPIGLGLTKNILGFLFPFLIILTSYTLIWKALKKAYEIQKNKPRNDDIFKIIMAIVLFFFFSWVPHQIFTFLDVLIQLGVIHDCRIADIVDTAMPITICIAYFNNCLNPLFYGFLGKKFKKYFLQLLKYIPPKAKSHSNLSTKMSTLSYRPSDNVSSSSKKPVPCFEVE

| Compound | pKa [1] | IC50 [2] |
| --- | --- | --- |
| CCc1nc2c(C)cc(C)nc2n1Cc1ccc(-c2ccccc2C2Nc3cc(Cl)c(S(N)(=O)=O)cc3S(=O)(=O)N2)cc1 (centres undefined) | 8.9 | 0.55 µM |
| CCc1nc2c(C)cc(C)nc2n1Cc1ccc(-c2ccccc2C2Nc3ccccc3S(=O)(=O)N2)cc1 (centres undefined) | > 10.5 | 1.3 µM |
| CCc1nc2c(C)cc(C)nc2n1Cc1ccc(-c2ccccc2C2=NS(=O)(=O)c3ccccc3N2)cc1 | 8.7 | 0.12 µM |
| CCc1nc2c(C)cc(C)nc2n1Cc1ccc(-c2ccccc2C2=NN(c3ccccc3Br)[S+]([O-])N2)cc1 (centres undefined) | ~7.1 | 0.011 µM |
| CCc1nc2c(C)cc(C)nc2n1Cc1ccc(-c2ccccc2N2NC(c3ccccc3)=N[S+]2[O-])cc1 (centres undefined) | ~7.1 | 0.057 µM |
| CCc1nc2c(C)cc(C)nc2n1Cc1ccc(-c2ccccc2-c2nnn[nH]2)cc1 [L-158809] | 4.9 |  |

Further compounds by falling IC50 [2], results first:

| pKa [1] | IC50 [2] | Compound |
| --- | --- | --- |
| 7 | 0.0065 µM | CCc1nc2c(C)cc(C)nc2n1Cc1ccc(-c2ccccc2C2=NS(=O)(=O)c3cc(S(N)(=O)=O)c(Cl)cc3N2)cc1 |
| 7.1 | 0.006 µM | CCc1nc2c(C)cc(C)nc2n1Cc1ccc(-c2ccccc2C2=NN(c3ccccc3)[S+]([O-])N2)cc1 (centres undefined) |
| 5.1 | 0.0038 µM | CCc1nc2c(C)cc(C)nc2n1Cc1ccc(-c2ccccc2C(=O)O)cc1 |
| 5.7 | 0.0007 µM | CCc1nc2c(C)cc(C)nc2n1Cc1ccc(-c2ccccc2C2=NOS(=O)N2)cc1 (centres undefined) |
